From patent US10202584B2, “Red-shifted luciferase-luciferin pairs for enhanced bioluminescence” (The Regents of the University of California, priority 2016, dated 2019)
Read-outs that look alike come from different tables or passages of the source.

Experiments:
[1] = system: luciferase-expressing HEK 293T cells; experiment: Bioluminescence imaging of intact luciferase-expressing HEK 293T cells; type: cell-based, Human; settings: FLuc-expressing HEK 293T cells, millimolar substrate
From the text: Images were acquired without a filter (1c) or with a 695±25 nm NIR emission filter (1e). Panels 2d and 2f are quantification results for Panels 2c and 2e, respectively. […] Data are shown as mean and s.d. of three independent experiments.
Data are shown as mean and s.d. of three independent experiments.
HEK 293T (purchased from ATCC and tested for mycoplasma by PCR), which is one of the most widely used and readily transfectable cell lines, was used for all tissue culture transfections. HEK 293T cells were cultured at 37° C. with 5% CO2 in Dulbecco's Modified Eagle's Medium (DMEM) supplemented with 10% fetal bovine serum (FBS). Transfection mixtures were prepared with 3 μg of plasmid DNA and 9 μg of PEI (polyethylenimine, linear, MW 25 kDa) in DMEM and incubated for 20 min at room temperature. The medium was first aspirated, and subsequently, the transfection mixtures were added to cells at 70% confluency on 35-mm culture dishes seeded one day prior to transfection. […]
The number and density of cells in DPBS suspension were determined using a hemocytometer. […] To use the luminescence dark box to directly image cells, we added luciferase-expressing HEK293T cells (2000 cells per well with ˜70% transfection efficiency) and the corresponding luciferin substrates into wells of a white-wall, 96-well plate. […] All images were analyzed using the Fiji image analysis software [1].

[2] = system: HEK 293T cells; experiment: Evaluation of the cytotoxicity of luciferins
Procedure: (§1) FIG. 15 is a panel showing the evaluation of the cytotoxicity of various luciferins. (15a) Viability of HEK 293T cells determined using RealTime-Glo™ MT Cell Viability Assay (Promega) after incubation with individual luciferin substrates for 24 h at 37° C. (15b) Evaluation of cell morphology and staining of dead cells. Cells incubated with the indicated luciferins for 24 h at 37° C. were stained with propidium iodide (PI), a fluorescent dye for dead cells.
(§2) Cell viability was determined using RealTime-Glo™ MT Cell Viability Assay (Promega) after incubation of HEK 293T cells with individual luciferin substrates for 24 h at 37° C. Cell morphology was further evaluated using microscopy. Briefly, HEK 293T cells in 35-mm culture dishes were washed twice with 400 μL DPBS pre-warmed to 37° C., and further incubated in 500 μL DPBS containing 20 μg/mL propidium iodide (PI), a fluorescent stain for dead cells, at room temperature for 15 min under light-shielded conditions. Cells were further rinsed with pre-warmed 300 μL DPBS three times to remove residual PI. Cells in 300 μL DPBS were next analyzed on a Motic AE31 microscope equipped with a 100 W Short-Arc Mercury lamp, a 540/25 nm excitation filter, a 565 nm longpass dichroic mirror, and a 605/55 nm emission filter.

[3] = system: HEK 293T cells; experiment: Cytotoxicity of luciferins (RealTime-Glo MT Cell Viability Assay; propidium iodide staining); type: cell-based; settings: 24 h at 37° C., millimolar concentrations
Procedure: as §1, §2

[4] = system: BALB/c mice; experiment: Bioluminescence imaging in deep tissues of live mice (hydrodynamic transfection); type: in vivo
From the text: FIG. 2 is a panel showing bioluminescence imaging of luciferase-luciferin pairs at superficial sites and in deep tissues of live mice. […] The group numbers in panel 2b are aligned with those in panel 2a. Two injection sites (one for luciferase-expressing cells and one for empty vehicle controls) for each mouse are illustrated with red arrows. […] Data are shown as mean and s.d. (n=3). […] Data are shown as mean and s.d. (n=4 for teLuc, Antares, and Antares2 with 3.3 μmol substrates, and n=3 for all other groups).
FIG. 16 is a graph of bioluminescence kinetics of IP injected luciferins (3.3 μmol each) in hydrodynamically transfected mice.
Hydrodynamic transfections were performed on BALB/c mice as described elsewhere. Briefly, 20 μg of each luciferase-expressing plasmid in sterilized saline (volume equivalent to 9% bodyweight of the treated mouse) was injected into restrained mice via the tail vein over 4-8 sec. Mice were allowed to recover on heat pads and were monitored until their breathing rate returned to normal. […] To inject 3.3 μmol DTZ or furimazine, the total volumes were increased to 500 μL. […] The Fiji image analysis software was used to process images and derive integrated intensities.

[5] = system: purified luciferases; experiment: In vitro bioluminescence intensity with purified recombinant proteins; type: biochemical; settings: assayed with NanoLuc
From the text: (§3) Signals were integrated until the substrates were completely consumed.

[6] = target: NanoLuc (Oplophorus gracilirostris, UniProt Q9GV45, A31E/A60N/A81I/F95D/I117V/K70R/L54V/L99Q/M102K/N193R/P142E/Q151K/Q38R/Q45L/V71I/Y165I); settings: cited from earlier work
NanoLuc, sequence (Q9GV45 28-196 with tags or gaps with the stated changes limits assumed): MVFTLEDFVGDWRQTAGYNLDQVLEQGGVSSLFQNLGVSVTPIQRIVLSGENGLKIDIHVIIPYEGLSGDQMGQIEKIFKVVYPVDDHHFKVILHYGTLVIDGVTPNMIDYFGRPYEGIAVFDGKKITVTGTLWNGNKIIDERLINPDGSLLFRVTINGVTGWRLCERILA

[7] = target: Rluc8 (Renilla reniformis, UniProt P27652, A143M/A55T/C124A/K136R/M185V/M253L/S130A/S287L); settings: RLuc mutant Rluc8; cited from earlier work
Rluc8, sequence (P27652 whole entry A55T/C124A/S130A/K136R/A143M/M185V/M253L/S287L, the tested form may be a part): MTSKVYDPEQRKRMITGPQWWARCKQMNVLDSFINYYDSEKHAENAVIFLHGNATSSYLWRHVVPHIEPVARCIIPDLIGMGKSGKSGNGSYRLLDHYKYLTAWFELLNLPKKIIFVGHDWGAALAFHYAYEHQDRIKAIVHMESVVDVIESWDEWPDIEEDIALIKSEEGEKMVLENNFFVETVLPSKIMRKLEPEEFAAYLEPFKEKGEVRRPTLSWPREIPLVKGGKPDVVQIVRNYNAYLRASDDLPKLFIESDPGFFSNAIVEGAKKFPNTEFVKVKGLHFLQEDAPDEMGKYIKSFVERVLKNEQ

[8] = target: Antares (NanoLuc fused to CyOFP1) (Oplophorus gracilirostris, UniProt Q9GV45); experiment: Apparent Michaelis constant and kcat, Antares, bioluminescence; type: biochemical; settings: assay buffer pH 6.0, mean ± s.d., n = 3
Antares (NanoLuc fused to CyOFP1), sequence (Q9GV45 28-196): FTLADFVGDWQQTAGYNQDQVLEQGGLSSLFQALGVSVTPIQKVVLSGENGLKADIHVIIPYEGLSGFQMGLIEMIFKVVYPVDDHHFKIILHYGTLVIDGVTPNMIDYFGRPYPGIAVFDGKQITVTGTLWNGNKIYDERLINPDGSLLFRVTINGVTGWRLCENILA
From the text: (§4) The final concentrations of all enzymes were 100 pM.
(9a) Primary structural arrangement of Antares and Antares2.
as §3

[9] = target: NanoLuc luciferase (Oplophorus gracihrostris-derived, parent, SEQ ID NO: 1) (Oplophorus gracilirostris, UniProt Q9GV45, A31E/A60N/A81I/F95D/I117V/K70R/L54V/L99Q/M102K/N193R/P142E/Q151K/Q38R/Q45L/V71I/Y165I); experiment: Apparent Michaelis constant and kcat, purified NanoLuc, bioluminescence; settings: kcat=Imax/(QY*[E]); assay buffer pH 6.0; mean ± s.d., n = 3
NanoLuc luciferase (Oplophorus gracihrostris-derived, parent, SEQ ID NO: 1), sequence (Q9GV45 28-196 A31E/Q38R/Q45L/L54V/A60N/K70R/V71I/A81I/F95D/L99Q/M102K/I117V/P142E/Q151K/Y165I/N193R, looked up): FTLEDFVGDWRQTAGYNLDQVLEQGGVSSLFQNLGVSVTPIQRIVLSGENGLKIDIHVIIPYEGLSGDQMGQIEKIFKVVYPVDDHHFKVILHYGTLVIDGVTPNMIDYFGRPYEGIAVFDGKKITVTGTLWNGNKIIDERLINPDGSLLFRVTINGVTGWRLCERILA
From the text: as §4, §3

[10] = target: ReNL (NanoLuc fused to fluorescent protein) (Oplophorus gracilirostris, UniProt Q9GV45); experiment: Apparent Michaelis constant and kcat, ReNL, bioluminescence; type: biochemical; settings: assay buffer pH 6.0, mean ± s.d., n = 3
ReNL (NanoLuc fused to fluorescent protein), sequence (Q9GV45 28-196): as the sequence (Q9GV45 28-196) above
From the text: as §4, §3

[11] = apparent, 100 pM enzyme, substrate 0.78 to 50 μM

Compound: AkaLumine-HCl
- bioluminescence intensity with FLuc compared with teLuc or Antares2 with micromolar DTZ [1]: 1-2 orders of magnitude lower
- cell toxicity [2]: induced cell death
- cytotoxicity by propidium iodide staining of dead cells ([2]; HEK 293T cells, 24 h at 37° C.): further confirmed by the red fluorescence of PI

Compound: O=c1c(Cc2ccccc2)nc2c(-c3ccccc3)[nH]c(-c3ccccc3)cn1-2 [DTZ]
- cell toxicity [3]: minimal cell toxicity

Compound: O=c1c(Cc2ccccc2)nc2c(-c3ccccc3)[nH]c(-c3ccccc3)cn1-2 [DTZ, diphenylterazine]
- bioluminescence kinetics after intraperitoneal injection ([4]; 3.3 μmol, hydrodynamically transfected mice): extended kinetics
- background emission in untransfected BALB/c mice ([4]; DTZ injection): did not yield any background emission
- brightness relative to furimazine [5]: reduced brightness
- cell toxicity ([2]; HEK 293T cells, 24 h at 37° C., RealTime-Glo MT Cell Viability Assay): minimal cell toxicity at millimolar concentrations

Compound: 6-pi-OH-CTZ
- bioluminescence with NanoLuc [6]: hardly any bioluminescence
- red-shift of Rluc8 bioluminescence [7]: 47 nm

Compound: O=c1c(Cc2ccccc2)nc2c([Se]c3ccccc3)[nH]c(-c3ccccc3)cn1-2 [STZ, 2-benzyl-6-phenyl-8-(phenylselanyl)imidazo[1,2-a]pyrazin-3(7H)-one]
- brightness relative to furimazine [5]: reduced brightness
- cell toxicity [2]: induced cell death
- cytotoxicity by propidium iodide staining of dead cells [2]: further confirmed by the red fluorescence of PI

Compound: O=C(O)[C@H]1CSC(c2nc3ccc(O)cc3s2)=N1 [D-luciferin]
- bioluminescence intensity with FLuc compared with teLuc or Antares2 with micromolar DTZ [1]: 1-2 orders of magnitude lower

Compound: O=c1c(Cc2ccco2)nc2c(Cc3ccccc3)[nH]c(-c3ccccc3)cn1-2 [furimazine]
- Km [8, 11]: 11.1 ± 0.5 µM
- kcat ([8]; kcat=Imax/(QY*[E])): 112 ± 2 s⁻¹
- kcat [9]: 88.2 ± 1.7 s⁻¹
- cell toxicity [2]: induced cell death
- cytotoxicity by propidium iodide staining of dead cells ([2]; HEK 293T cells, 24 h at 37° C.): further confirmed by the red fluorescence of PI
- Km [10, 11]: 14.5 ± 1.3 µM
- kcat ([10]; kcat=Imax/(QY*[E])): 104 ± 4 s⁻¹
